pIC50: −log10 of the molar value.
Key:
[1] = molecular target: T1, Protein kinase C alpha type (Homo sapiens, UniProt P17252); test: Displacement of [3H]PDBu from recombinant human PKCalpha C1 domain expressed in baculovirus infected insect Sf9 cells at 100 uM after 10 mins by liquid scintillation counting analysis relative to control
[2] = molecular target: T2, Protein kinase C delta type (Homo sapiens, UniProt Q05655); test: Displacement of [3H]PDBu from recombinant human PKCdelta C1 domain expressed in baculovirus infected insect Sf9 cells at 100 uM after 10 mins by liquid scintillation counting analysis relative to control
Target sequence in this assay (Q05655 whole entry, looked up, the tested form may be a part): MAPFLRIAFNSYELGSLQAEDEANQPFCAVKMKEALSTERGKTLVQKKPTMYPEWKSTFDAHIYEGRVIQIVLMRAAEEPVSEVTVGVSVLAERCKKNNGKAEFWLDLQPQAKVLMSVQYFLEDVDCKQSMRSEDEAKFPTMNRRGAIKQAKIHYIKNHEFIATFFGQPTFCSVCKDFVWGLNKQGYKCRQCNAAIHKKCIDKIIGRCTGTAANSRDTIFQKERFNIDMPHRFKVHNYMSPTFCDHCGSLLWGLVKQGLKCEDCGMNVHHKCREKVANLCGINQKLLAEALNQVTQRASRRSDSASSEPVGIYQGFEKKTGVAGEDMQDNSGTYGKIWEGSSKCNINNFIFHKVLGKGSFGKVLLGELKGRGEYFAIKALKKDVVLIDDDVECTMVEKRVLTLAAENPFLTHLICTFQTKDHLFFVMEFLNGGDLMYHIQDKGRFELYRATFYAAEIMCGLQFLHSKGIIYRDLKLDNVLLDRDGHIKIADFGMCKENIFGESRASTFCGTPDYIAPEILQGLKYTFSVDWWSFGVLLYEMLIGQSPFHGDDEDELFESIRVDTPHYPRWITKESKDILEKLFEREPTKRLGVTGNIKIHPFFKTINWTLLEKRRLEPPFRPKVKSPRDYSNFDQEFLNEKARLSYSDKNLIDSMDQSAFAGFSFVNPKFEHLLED

[3] = molecular target: T1, Protein kinase C alpha type; test: Displacement of [3H]PDBu from recombinant human PKCalpha C1 domain expressed in baculovirus infected insect Sf9 cells assessed as residual radiolabeled binding at 100 uM after 10 mins by liquid scintillation counting analysis relative to control
[4] = molecular target: T2, Protein kinase C delta type; test: Displacement of [3H]PDBu from recombinant human PKCdelta C1 domain expressed in baculovirus infected insect Sf9 cells assessed as residual radiolabeled binding at 100 uM after 10 mins by liquid scintillation counting analysis relative to control
Target sequence in this assay (Q05655 whole entry, looked up, the tested form may be a part): as the sequence (Q05655 whole entry, looked up, the tested form may be a part) above

[5] = molecular target: T1, Protein kinase C alpha type; test: Displacement of [3H]PDBu from recombinant human PKCalpha C1 domain expressed in baculovirus infected insect Sf9 cells after 10 mins by liquid scintillation counting analysis
[6] = molecular target: T2, Protein kinase C delta type; test: Displacement of [3H]PDBu from recombinant human PKCdelta C1 domain expressed in baculovirus infected insect Sf9 cells after 10 mins by liquid scintillation counting analysis

## CC(C)(C)C(=O)OCC(CO)c1ccc(OCc2ccccc2)cc1 (single isomer, unassigned; (+))
[1]
  inhibition: 34.6%
[2]
  inhibition: 34.6%

## O=C(CC(CO)c1ccc(OCc2ccccc2)cc1)OCc1ccccc1 (stereo not drawn)
[3]
  Activity: 73.9%
[4]
  Residual [3H]PDBu binding: 61.6%
[5]
  inhibition: Dose-dependent effect
[6]
  inhibition: Dose-dependent effect

## CN(Cc1ccccc1)C(=O)CC(CO)c1ccc(OCc2ccccc2)cc1 (stereo not drawn)
[3]
  Activity: 80.6%

## O=C(Cc1ccccc1)OCC(CO)c1ccc(OCc2ccccc2)cc1 (racemic) [listing 1 of 2 here]
[5]
  pIC50: 4.13
[6]
  pIC50: 4.40

## O=C(CC(CO)c1ccc(-c2ccccc2)cc1)N1CCOCC1 (stereo not drawn)
[3]
  Activity: 86.6%

## O=C(Cc1ccccc1)OCC(CO)c1ccc(OCc2ccccc2)cc1 (racemic) [listing 2 of 2 here]
[3]
  Activity: 51.3%
[4]
  Residual [3H]PDBu binding: 34.8%
[5]
  inhibition: Dose-dependent effect

## CC(C)(C)C(=O)OCC(CO)c1ccc(OCc2ccccc2)cc1 (racemic) [listing 1 of 2 here]
[5]
  pIC50: 4.43
[6]
  pIC50: 4.48

## CC(C)(C)C(=O)OCC(CO)c1ccc(OCc2ccccc2)cc1 (single isomer, unassigned)
[1]
  inhibition: 36.3%
[2]
  inhibition: 36.3%

## O=C(CC(CO)c1cccc(OCc2ccccc2)c1)OCc1ccccc1 (stereo not drawn)
[3]
  Activity: 67.4%
[4]
  Residual [3H]PDBu binding: 52.5%
[5]
  inhibition: Dose-dependent effect
[6]
  inhibition: Dose-dependent effect

## CCN(CC)C(=O)CC(CO)c1ccc(OCc2ccccc2)cc1 (stereo not drawn)
[3]
  Activity: 100%

## CCN(CC)C(=O)CC(CO)c1cccc(OCc2ccccc2)c1 (stereo not drawn)
[3]
  Activity: 90%

## CN(Cc1ccccc1)C(=O)CC(CO)c1cccc(OCc2ccccc2)c1 (stereo not drawn)
[3]
  Activity: 72.4%

## CC(C)(C)C(=O)OCC(CO)c1ccc(OCc2ccccc2)cc1 (racemic) [listing 2 of 2 here]
[3]
  Activity: 41.6%
[4]
  Residual [3H]PDBu binding: 29.3%

## CCN(CC)C(=O)CC(CO)c1ccc(-c2ccccc2)cc1 (stereo not drawn)
[3]
  Activity: 84.4%

## O=C(CC(CO)c1ccc(OCc2ccccc2)cc1)N1CCOCC1 (stereo not drawn)
[3]
  Activity: 107%

## O=C(CC(CO)c1ccc(-c2ccccc2)cc1)OCc1ccccc1 (stereo not drawn)
[3]
  Activity: 64.4%
[4]
  Residual [3H]PDBu binding: 56.7%
[5]
  inhibition: Dose-dependent effect
[6]
  inhibition: Dose-dependent effect

## O=C(Cc1ccccc1)OCC(CO)c1ccc(OCc2ccccc2)cc1 (single isomer, unassigned; (-))
[1]
  inhibition: 26.3%
[2]
  inhibition: 26.3%

## O=C(Cc1ccccc1)OCC(CO)c1ccc(OCc2ccccc2)cc1 (single isomer, unassigned)
[1]
  inhibition: 27.3%
[2]
  inhibition: 27.3%

## O=C(CC(CO)c1cccc(OCc2ccccc2)c1)N1CCOCC1 (stereo not drawn)
[3]
  Activity: 99.7%

## CN(Cc1ccccc1)C(=O)CC(CO)c1ccc(-c2ccccc2)cc1 (stereo not drawn)
[3]
  Activity: 76.1%

— ChEMBL document CHEMBL3632532, “Beyond the affinity for protein kinase C: exploring 2-phenyl-3-hydroxypropyl pivalate analogues as C1 domain-targeting ligands” (Medchemcomm, 2015)
